Columns and labels:
barnyardgrass [1] = experiment: Test A preemergence; assay type: in vivo, Echinochloa crus-galli
How it was run: (§1)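 Greenhouse pot test, loam/sand soil. Formulation: non-phytotoxic solvent mix plus surfactant. Pre: directed spray onto soil after sowing. Post: plants at 1–2 leaf, 2–10 cm. Rated visually vs untreated controls at ~10 d, 0 (no effect) to 100 (complete control).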

large (Lg) crabgrass [2] = experiment: Test A preemergence; assay type: in vivo, Digitaria sanguinalis
How it was run: as §1

giant foxtail [3] = experiment: Test A preemergence; assay type: in vivo, Setaria faberii
How it was run: as §1

morningglory [4] = experiment: Test A preemergence; assay type: in vivo, Ipomoea spp.
How it was run: as §1

pigweed [5] = experiment: Test A preemergence; assay type: in vivo, Amaranthus retroflexus
How it was run: as §1

velvetleaf [6] = experiment: Test A preemergence; assay type: in vivo, Abutilon theophrasti
How it was run: as §1

wheat [7] = experiment: Test A preemergence; assay type: in vivo, Triticum aestivum
How it was run: as §1

corn [8] = experiment: Test A preemergence; assay type: in vivo, Zea mays
How it was run: as §1

barnyardgrass [9] = experiment: Test A postemergence; assay type: in vivo, Echinochloa crus-galli
How it was run: as §1

large (Lg) crabgrass [10] = experiment: Test A postemergence; assay type: in vivo, Digitaria sanguinalis
How it was run: as §1

giant foxtail [11] = experiment: Test A postemergence; assay type: in vivo, Setaria faberii
How it was run: as §1

morningglory [12] = experiment: Test A postemergence; assay type: in vivo, Ipomoea spp.
How it was run: as §1

pigweed [13] = experiment: Test A postemergence; assay type: in vivo, Amaranthus retroflexus
How it was run: as §1

velvetleaf [14] = experiment: Test A postemergence; assay type: in vivo, Abutilon theophrasti
How it was run: as §1

wheat [15] = experiment: Test A postemergence; assay type: in vivo, Triticum aestivum
How it was run: as §1

corn [16] = experiment: Test A postemergence; assay type: in vivo, Zea mays
How it was run: as §1

rice = experiment: Test B flooded paddy test; assay type: in vivo, Oryza sativa; conditions: Flood, 250 g ai/ha, 0 to 100 scale where 0 is no effect and 100 is complete control
How it was run: (§2)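 2-leaf stage plants; pots flooded to 3 cm, compound added to paddy water, depth maintained. Greenhouse 13–15 d. Visual rating vs untreated controls, 0 (no effect) to 100 (complete control); dash = no result.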

sedge, umbrella = experiment: Test B flooded paddy test; assay type: in vivo, Cyperus difformis; conditions: Flood, 250 g ai/ha, 0 to 100 scale where 0 is no effect and 100 is complete control
How it was run: as §2

Heteranthera limosa = experiment: Test B flooded paddy test; assay type: in vivo; conditions: Flood, 250 g ai/ha, 0 to 100 scale where 0 is no effect and 100 is complete control
How it was run: as §2

barnyardgrass [17] = experiment: Test B flooded paddy test; assay type: in vivo, Echinochloa crus-galli; conditions: Flood, 250 g ai/ha, 0 to 100 scale where 0 is no effect and 100 is complete control
How it was run: as §2

[18] = 125 g ai/ha, 0 to 100 scale where 0 is no effect and 100 is complete control
[19] = 500 g ai/ha, 0 to 100 scale, 0 no effect, 100 complete control, approx. 10 days
[20] = 500 g ai/ha, 0 to 100 scale, 0 no effect, 100 complete control

## Clc1cnc(Oc2cc(Cl)ccc2-n2cc(Br)cn2)nc1 [Compound 51]
Barnyardgrass [1]; [18]
  Plant response rating, Barnyardgrass: 20
Barnyardgrass [1]; [19]
  Barnyardgrass plant response rating: 30
Large (Lg) crabgrass [2]; [18]
  Plant response rating, Crabgrass, Large: 40
Large (Lg) crabgrass [2]; [19]
  Crabgrass, Large plant response rating: 90
Giant foxtail [3]; [18]
  Plant response rating, Foxtail, Giant: 20
Giant foxtail [3]; [19]
  Foxtail, Giant plant response rating: 80
Morningglory [4]; [18]
  Plant response rating, Morningglory: 0
Morningglory [4]; [19]
  Morningglory plant response rating: 0
Pigweed [5]; [18]
  Plant response rating, Pigweed: 10
Pigweed [5]; [19]
  Pigweed plant response rating: 80
Velvetleaf [6]; [18]
  Plant response rating, Velvetleaf: 0
Velvetleaf [6]; [19]
  Velvetleaf plant response rating: 0
Wheat [7]; [18]
  Plant response rating, Wheat: 0
Wheat [7]; [19]
  Wheat plant response rating: 0
Corn [8]; [18]
  Plant response rating, Corn: 0
Corn [8]; [19]
  Corn plant response rating: 0
Barnyardgrass [9]; [18]
  Plant response rating, Barnyardgrass: 0
Barnyardgrass [9]; [20]
  Plant response rating, Barnyardgrass: 10
Large (Lg) crabgrass [10]; [18]
  Plant response rating, Crabgrass, Large: 0
Large (Lg) crabgrass [10]; [20]
  Plant response rating, Crabgrass, Large: 20
Giant foxtail [11]; [18]
  Plant response rating, Foxtail, Giant: 0
Giant foxtail [11]; [20]
  Plant response rating, Foxtail, Giant: 10
Morningglory [12]; [18]
  Plant response rating, Morningglory: 10
Morningglory [12]; [20]
  Plant response rating, Morningglory: 20
Pigweed [13]; [18]
  Plant response rating, Pigweed: 30
Pigweed [13]; [20]
  Plant response rating, Pigweed: 70
Velvetleaf [14]; [18]
  Plant response rating, Velvetleaf: 50
Velvetleaf [14]; [20]
  Plant response rating, Velvetleaf: 60
Wheat [15]; [18]
  Plant response rating, Wheat: 0
Wheat [15]; [20]
  Plant response rating, Wheat: 0
Corn [16]; [18]
  Plant response rating, Corn: 0
Corn [16]; [20]
  Plant response rating, Corn: 20
rice
  Plant response rating, Rice: 0
sedge, umbrella
  Plant response rating, Sedge, Umbrella: 65
Heteranthera limosa
  Plant response rating, Ducksalad: 40
Barnyardgrass [17]
  Plant response rating, Barnyardgrass: 0

## Clc1cnc(Oc2ccccc2-n2ncc(Br)n2)nc1 [Compound 54, 2-[2-(4-bromo-2H-1,2,3-triazol-2-yl)phenoxy]-5-chloropyrimidine]
Barnyardgrass [1]; Echinochloa crus-galli, pre-emergence, 240 h, 1000 g ai/ha, 0 to 100 scale, 0 no effect, 100 complete control, read-out: Plant response rating, Barnyardgrass
  pest or weed control at 1000 g/ha: 0%
Large (Lg) crabgrass [2]; Digitaria sanguinalis, pre-emergence, 240 h, 1000 g ai/ha, 0 to 100 scale, 0 no effect, 100 complete control, read-out: Plant response rating, Crabgrass, Large
  pest or weed control at 1000 g/ha: 100%
Giant foxtail [3]; Setaria faberi, pre-emergence, 240 h, 1000 g ai/ha, 0 to 100 scale, 0 no effect, 100 complete control, approx. 10 days, read-out: Foxtail, Giant plant response rating
  pest or weed control at 1000 g/ha: 100%
Morningglory [4]; Ipomoea, pre-emergence, 240 h, 1000 g ai/ha, 0 to 100 scale, 0 no effect, 100 complete control, approx. 10 days, read-out: Morningglory plant response rating
  pest or weed control at 1000 g/ha: 70%
Pigweed [5]; Amaranthus retroflexus, pre-emergence, 240 h, 1000 g ai/ha, 0 to 100 scale, 0 no effect, 100 complete control, approx. 10 days, read-out: Pigweed plant response rating
  pest or weed control at 1000 g/ha: 100%
Velvetleaf [6]; Abutilon theophrasti, pre-emergence, 240 h, 1000 g ai/ha, 0 to 100 scale, 0 no effect, 100 complete control, approx. 10 days, read-out: Velvetleaf plant response rating
  pest or weed control at 1000 g/ha: 100%
Wheat [7]; Triticum aestivum, pre-emergence, 240 h, 1000 g ai/ha, 0 to 100 scale, 0 no effect, 100 complete control, approx. 10 days, read-out: Wheat plant response rating
  plant injury at 1000 g/ha: 0%
Corn [8]; Zea mays, pre-emergence, 240 h, 1000 g ai/ha, 0 to 100 scale, 0 no effect, 100 complete control
  Corn plant response rating (crop injury, 0 = no effect, 100 = complete kill) at 1000 g/ha: 20%
Barnyardgrass [9]; Echinochloa crus-galli, post-emergence, 240 h, 1000 g ai/ha, 0 to 100 scale, 0 no effect, 100 complete control, read-out: Plant response rating Barnyardgrass
  pest or weed control at 1000 g/ha: 30%
Large (Lg) crabgrass [10]; Digitaria sanguinalis, post-emergence, 240 h, 1000 g ai/ha, 0 to 100 scale, 0 no effect, 100 complete control, read-out: Plant response rating Crabgrass, Large
  pest or weed control at 1000 g/ha: 100%
Giant foxtail [11]; Setaria faberi, post-emergence, 240 h, 1000 g ai/ha, 0 to 100 scale, 0 no effect, 100 complete control, read-out: Plant response rating Foxtail, Giant
  pest or weed control at 1000 g/ha: 70%
Morningglory [12]; Ipomoea, post-emergence, 240 h, 1000 g ai/ha, 0 to 100 scale, 0 no effect, 100 complete control, read-out: Plant response rating Morningglory
  pest or weed control at 1000 g/ha: 100%
Pigweed [13]; Amaranthus retroflexus, post-emergence, 240 h, 1000 g ai/ha, 0 to 100 scale, 0 no effect, 100 complete control, read-out: Plant response rating Pigweed
  pest or weed control at 1000 g/ha: 100%
Velvetleaf [14]; Abutilon theophrasti, post-emergence, 240 h, 1000 g ai/ha, 0 to 100 scale, 0 no effect, 100 complete control, read-out: Plant response rating Velvetleaf
  pest or weed control at 1000 g/ha: 80%
Wheat [15]; Triticum aestivum, post-emergence, 240 h, 1000 g ai/ha, 0 to 100 scale, 0 no effect, 100 complete control, read-out: Plant response rating Wheat
  plant injury at 1000 g/ha: 0%
Corn [16]; Zea mays, post-emergence, 240 h, 1000 g ai/ha, 0 to 100 scale, 0 no effect, 100 complete control, read-out: Plant response rating Corn
  plant injury at 1000 g/ha: 50%
rice; Oryza sativa, read-out: Plant response rating, Rice
  plant injury at 250 g/ha: 0%
sedge, umbrella; Cyperus difformis, read-out: Plant response rating, Sedge, Umbrella
  pest or weed control at 250 g/ha: 0%
Heteranthera limosa; Heteranthera limosa, read-out: Plant response rating, Ducksalad
  pest or weed control at 250 g/ha: 0%
Barnyardgrass [17]; Echinochloa crus-galli, read-out: Plant response rating, Barnyardgrass
  pest or weed control at 250 g/ha: 0%

From patent US9695155B2, “Herbicidal substituted pyrimidinyloxy benzene compounds” (E. I. DU PONT DE NEMOURS AND COMPANY, priority 2013, dated 2017)
